Experimental data from patent US10155948B2, “Pharmaceutical composition for preventing or treating diabetic complications and screening method for preventive or therapeutic agent for diabetic complications” (KANGWON NATIONAL UNIVERSITY UNIVERSITY-INDUSTRY COOPERATION …, priority 2016, dated 2018).

How the values were obtained:
Format in all cases: cell-based, human
[1] = test system: HRECs; test: In-vitro endothelial cell monolayer permeability assay (FITC-dextran, Transwell); conditions: 50 μM cystamine, 20 μM MDC or 100 nM dasatinib 30 min, 10 ng/ml VEGF 90 min, p<0.01
Description: In-vitro permeability assay was performed as previously described. HRECs were grown on gelatin-coated inserts (0.4 μm polycarbonate membrane) of Transwell® Permeable Supports (Costar, Corning, N.Y., USA) up to confluence. Approximately 1.0×10^5 cells in 0.5 ml of culture medium were seeded on the upper side of the membrane while 1 ml of culture medium was added to the lower compartment. […] The amount of FITC-dextran that diffused through the endothelial monolayer into the lower chamber was measured using a microplate spectrofluorometer (Molecular Devices, Sunnyvale, Calif., USA).
(A-C) HRECs were preincubated with 50 μM cystamine (Cys) and 20 μM MDC for 30 min and treated with 10 ng/ml VEGF. […] (C) Adherens junctions were quantitatively analyzed using the peak fluorescence intensities of the histograms at the single-cell level. The results are expressed as mean±SD from three independent trials. […] The amount of FITC-dextran that diffused to the lower chamber was measured by a microplate spectrofluorometer (n=3) (**p<0.01).
(A) β-catenin was visualized by confocal microscopy. […] (B) cSrc phosphorylation at Tyr^416 was analyzed by Western blot. […] Results are expressed as mean±SD from three independent experiments (**p<0.01, ***p<0.001).

[2] = test system: β-catenin; test: Visualization of β-catenin in HRECs; conditions: 50 μM cystamine or 100 nM dasatinib 30 min, 10 ng/ml VEGF 90 min
Description: For visualization of β-catenin, cells were preincubated with inhibitors for 30 min and treated with 10 ng/ml VEGF for 90 min, fixed with 3.7% formaldehyde, and permeabilized with 0.2% Triton X-100. Cells were incubated overnight with a monoclonal anti-3-catenin antibody (1:200, Santa Cruz Biotechnology) at 4° C. Cells were then probed with an FITC-conjugated goat anti-mouse antibody (1:200, Sigma) and visualized using confocal microscopy. Images for making galleries were cropped to a smaller size using Microsoft PowerPoint 2010 software.
(A) β-catenin was visualized by confocal microscopy. Scale bar, 30 μm. (B) cSrc phosphorylation at Tyr^416 was analyzed by Western blot. (C) In-vitro endothelial cell monolayer permeability assay. Results are expressed as mean±SD from three independent experiments (**p<0.01, ***p<0.001).

[3] = test system: c-Src; test: c-Src phosphorylation (Tyr416) by Western blot in HRECs; conditions: 50 μM cystamine or 100 nM dasatinib 30 min, 10 ng/ml VEGF 15 min
Description: Cells were incubated with an ice-cold lysis buffer containing 50 mM Tris-HCl (pH 7.5), 1% Triton X-100, 150 mM NaCl, 1 mM EDTA, 0.1 mM phenylmethylsulfonyl fluoride (PMSF), 10 μg/ml aprotinin, and 10 μg/ml leupeptin for 30 min. Cell lysates were separated by SDS-PAGE and transferred to polyvinylidene fluoride membranes. The membranes were blocked with 5% skim milk in TBS with 0.1% Tween for 1 hr at room temperature (RT). […] Protein bands were visualized using a chemiluminescent substrate (Pierce, Rockford, Ill.).

## NCCSSCCN [cystamine]
[1]
  VEGF-increased in-vitro endothelial permeability: inhibited
[2]
  VEGF-induced β-catenin breakdown: inhibited
[3]
  VEGF-induced c-Src phosphorylation (Tyr416): prevented

## CN(C)c1cccc2c(S(=O)(=O)NCCCCCN)cccc12 [MDC, monodansylcadaverine]
[1]
  VEGF-increased in-vitro endothelial permeability: inhibited
